{"source": "patent US20170107179A1", "about": "(Tetraphase Pharmaceuticals, Inc., priority 2010, published 2017)", "key": {"H. influenzae HI551": {"test_system": "H. influenzae HI551", "experiment": "Rat lung infection model", "assay_type": "in vivo", "details": "H. influenzae intratracheal, 50 mg/kg orally at 5, 24, 48 hours"}, "E. coli DH10B EC971 LacZ": {"test_system": "E. coli DH10B EC971 LacZ", "experiment": "MIC, E. coli DH10B recombinantly expressing control gene", "details": "E. coli DH10B, arabinose-induced, ampicillin in medium"}, "[1]": {"test_system": "E. coli DH10B EC1153 Tet(X)", "experiment": "MIC, E. coli DH10B recombinantly expressing tetracycline-resistance gene", "details": "arabinose-induced, ampicillin in medium"}, "E. coli DH10B EC969 TetM": {"test_system": "E. coli DH10B EC969 TetM", "experiment": "MIC, E. coli DH10B recombinantly expressing tetracycline-resistance gene", "details": "arabinose-induced, ampicillin in medium"}, "E. coli DH10B EC970 TetK": {"test_system": "E. coli DH10B EC970 TetK", "experiment": "MIC, E. coli DH10B recombinantly expressing tetracycline-resistance gene", "details": "arabinose-induced, ampicillin in medium"}, "[2]": {"test_system": "E. coli DH10B EC1082 TetA", "experiment": "MIC, E. coli DH10B recombinantly expressing tetracycline-resistance gene", "details": "arabinose-induced, ampicillin in medium"}, "[3]": {"test_system": "E. coli DH10B EC1083 TetB", "experiment": "MIC, E. coli DH10B recombinantly expressing tetracycline-resistance gene", "details": "arabinose-induced, ampicillin in medium"}, "Gram-positive pathogens": {"test_system": "Gram-positive pathogens", "experiment": "Broth microdilution MIC, respiratory/skin pathogens (Table 12)", "details": "E. faecalis, VAN S (n = 53)"}, "S. aureus Smith": {"test_system": "S. aureus Smith", "experiment": "Mouse systemic infection (septicemia) model, CD-1 mice", "details": "Staphylococcus aureus, in Mus musculus, 48 h; for responders at 3 mg/kg: iv, read-out: Percent survival at 48 hours, IV (3 mg/kg); for responders at 30 mg/kg: po, read-out: Percent survival at 48 hours, PO (30 mg/kg)"}}, "data": [{"molecule": "CC[C@H]1OC(=O)[C@H](C)[C@@H](O[C@H]2C[C@@](C)(OC)[C@@H](O)[C@H](C)O2)[C@H](C)[C@@H](O[C@@H]2O[C@H](C)C[C@H](N(C)C)[C@H]2O)[C@](C)(O)C[C@@H](C)CN(C)[C@H](C)[C@@H](O)[C@]1(C)O", "note": "[Azithromycin, azithromycin, reference compound]", "values": [{"measurement": "reduction in lung CFU, oral comparator", "setting": "H. influenzae HI551", "value": "6.24±0.03", "unit": "log10"}]}, {"molecule": "CO/N=C(\\C(=O)N[C@@H]1C(=O)N2C(C(=O)O)=C(CSc3nc(=O)c(=O)[nH]n3C)CS[C@H]12)c1csc(N)n1", "note": "[Ceftriaxone]", "values": [{"measurement": "MIC EC971 LacZ", "setting": "E. coli DH10B EC971 LacZ", "value": 0.125}, {"measurement": "MIC EC1153 Tet(X)", "setting": "[1]", "value": 0.125}, {"measurement": "MIC EC969 TetM", "setting": "E. coli DH10B EC969 TetM", "value": 0.5}, {"measurement": "MIC EC970 TetK", "setting": "E. coli DH10B EC970 TetK", "value": 0.0625}, {"measurement": "MIC EC1082 TetA", "setting": "[2]", "value": 0.0625}, {"measurement": "MIC EC1083 TetB", "setting": "[3]", "value": 0.0625}]}, {"molecule": "CCC[C@@H]1C[C@@H](C(=O)N[C@@H]([C@H]2O[C@H](SC)[C@H](O)[C@@H](O)[C@H]2O)[C@H](C)Cl)N(C)C1", "note": "[Clindarnycin]", "values": [{"measurement": "MIC50", "setting": "Gram-positive pathogens", "value": "> 2", "unit": "µg/mL"}, {"measurement": "MIC90", "setting": "Gram-positive pathogens", "value": "> 2", "unit": "µg/mL"}]}, {"molecule": "CN(C)[C@@H]1C(O)=C(C(N)=O)C(=O)[C@@]2(O)C(O)=C3C(=O)c4c(O)c5c(c(F)c4C[C@H]3C[C@@H]12)CN1CCCC[C@@H]1C(=O)N5", "note": "[Compound 410]", "values": [{"measurement": "responders at 3 mg/kg", "setting": "S. aureus Smith", "value": 100, "unit": "%"}, {"measurement": "responders at 30 mg/kg", "setting": "S. aureus Smith", "value": 50, "unit": "%"}]}, {"molecule": "CN(C)[C@@H]1C(O)=C(C(N)=O)C(=O)[C@@]2(O)C(O)=C3C(=O)c4c(O)c5c(c(F)c4C[C@H]3C[C@@H]12)CN1CCC[C@H]1C(=O)N5", "note": "[Compound 412]", "values": [{"measurement": "responders at 3 mg/kg", "setting": "S. aureus Smith", "value": 100, "unit": "%"}, {"measurement": "responders at 30 mg/kg", "setting": "S. aureus Smith", "value": 40, "unit": "%"}]}, {"molecule": "CN1CC(=O)Nc2c(O)c3c(c(F)c2C1)C[C@H]1C[C@H]2[C@H](N(C)C)C(O)=C(C(N)=O)C(=O)[C@@]2(O)C(O)=C1C3=O", "note": "[Compound 416]", "values": [{"measurement": "responders at 3 mg/kg", "setting": "S. aureus Smith", "value": 100, "unit": "%"}, {"measurement": "responders at 30 mg/kg", "setting": "S. aureus Smith", "value": 20, "unit": "%"}]}]}
